{
  "source": "paper PMC3078184",
  "about": "(Cancer research, 2011)",
  "key": {"ABCB1": {"molecular_target": "ABCB1 (Homo sapiens, UniProt P08183)", "sequence (P08183 whole entry)": "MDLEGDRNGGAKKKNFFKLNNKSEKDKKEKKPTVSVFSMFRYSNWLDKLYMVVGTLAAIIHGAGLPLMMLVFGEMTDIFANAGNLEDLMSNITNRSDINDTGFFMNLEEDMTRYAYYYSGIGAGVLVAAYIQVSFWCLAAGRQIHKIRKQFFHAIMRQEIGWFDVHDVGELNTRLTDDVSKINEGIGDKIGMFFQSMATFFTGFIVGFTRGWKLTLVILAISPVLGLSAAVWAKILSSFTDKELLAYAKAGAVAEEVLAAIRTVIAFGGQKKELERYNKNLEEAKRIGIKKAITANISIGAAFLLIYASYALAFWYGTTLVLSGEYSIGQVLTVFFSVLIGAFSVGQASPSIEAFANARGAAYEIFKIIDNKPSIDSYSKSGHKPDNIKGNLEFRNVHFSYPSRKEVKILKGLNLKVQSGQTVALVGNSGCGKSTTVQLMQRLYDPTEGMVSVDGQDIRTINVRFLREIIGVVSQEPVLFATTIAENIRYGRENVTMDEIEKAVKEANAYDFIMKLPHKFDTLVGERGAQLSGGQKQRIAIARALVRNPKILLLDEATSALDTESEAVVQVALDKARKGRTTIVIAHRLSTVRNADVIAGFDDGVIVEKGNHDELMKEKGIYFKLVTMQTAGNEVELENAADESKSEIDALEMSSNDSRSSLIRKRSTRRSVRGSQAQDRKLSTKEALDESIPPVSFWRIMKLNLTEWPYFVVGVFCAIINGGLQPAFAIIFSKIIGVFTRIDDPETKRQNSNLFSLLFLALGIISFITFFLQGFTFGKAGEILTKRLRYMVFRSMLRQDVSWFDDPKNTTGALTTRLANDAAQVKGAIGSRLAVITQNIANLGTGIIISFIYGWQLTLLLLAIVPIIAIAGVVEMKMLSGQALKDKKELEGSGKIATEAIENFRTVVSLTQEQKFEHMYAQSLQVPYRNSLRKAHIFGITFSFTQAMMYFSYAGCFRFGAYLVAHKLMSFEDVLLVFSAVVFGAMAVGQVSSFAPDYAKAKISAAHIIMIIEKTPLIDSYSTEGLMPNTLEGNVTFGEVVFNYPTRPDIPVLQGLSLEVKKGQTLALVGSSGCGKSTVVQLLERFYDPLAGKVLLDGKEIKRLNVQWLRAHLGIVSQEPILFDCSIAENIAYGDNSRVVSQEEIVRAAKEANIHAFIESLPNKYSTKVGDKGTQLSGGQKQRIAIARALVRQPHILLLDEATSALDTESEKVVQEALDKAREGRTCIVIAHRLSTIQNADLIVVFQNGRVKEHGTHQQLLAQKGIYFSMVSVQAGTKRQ", "assay": "vanadate-sensitive ATPase stimulation in membrane vesicles", "type": "biochemical"}, "ABCG2": {"molecular_target": "T1, ABCG2 (Homo sapiens, UniProt Q9UNQ0)", "T1 sequence (Q9UNQ0 1-655)": "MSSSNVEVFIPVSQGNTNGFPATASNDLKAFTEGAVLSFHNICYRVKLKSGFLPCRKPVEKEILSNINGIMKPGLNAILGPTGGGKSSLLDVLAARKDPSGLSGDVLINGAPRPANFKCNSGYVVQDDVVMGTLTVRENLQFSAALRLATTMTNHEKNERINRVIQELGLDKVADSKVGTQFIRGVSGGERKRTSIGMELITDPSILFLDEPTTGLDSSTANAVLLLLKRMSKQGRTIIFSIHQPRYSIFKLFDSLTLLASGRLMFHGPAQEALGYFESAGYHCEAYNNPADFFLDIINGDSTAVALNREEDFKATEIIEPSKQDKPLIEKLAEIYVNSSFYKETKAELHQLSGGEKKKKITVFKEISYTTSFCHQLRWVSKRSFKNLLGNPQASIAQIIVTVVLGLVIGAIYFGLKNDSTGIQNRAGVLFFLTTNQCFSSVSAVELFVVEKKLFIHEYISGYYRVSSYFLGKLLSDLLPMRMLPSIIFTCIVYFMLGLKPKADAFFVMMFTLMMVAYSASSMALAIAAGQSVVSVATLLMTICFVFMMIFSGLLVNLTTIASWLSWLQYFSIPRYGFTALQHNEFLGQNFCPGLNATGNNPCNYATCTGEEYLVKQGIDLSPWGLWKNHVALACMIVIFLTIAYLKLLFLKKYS", "assay": "vanadate-sensitive ATPase stimulation in membrane vesicles", "type": "biochemical"}},
  "data": [
    {"smiles": "CCCc1nn(C)c2c(=O)[nH]c(-c3cc(S(=O)(=O)N4CCN(C)CC4)ccc3OCC)nc12", "note": "[Sildenafil]", "values": [
      {"measurement": "EC50", "setting": "ABCB1", "value": "5000 to 10000", "unit": "nM"},
      {"measurement": "EC50", "setting": "ABCG2", "value": "250 to 500", "unit": "nM"}
    ]}
  ]
}
